Source: patent US8754057B2, “Inhibition of apoptosis-specific eIF-5A(eIF-5A1″) with antisense oligonucleotides and siRNA as anti-inflammatory therapeutics” (Senesco Technologies, Inc., priority 2003, dated 2014)

Key:
[1] = system: apoptosis-specific eIF-5A; experiment: Apoptosis-specific eIF-5A expression in U937 cells with PMA or LPS; type: cell-based, human
Description: (§1) U937 cells were collected and counted 16 hours after electroporation. 200,000 cells in 1 ml of media were added to each well of 24-well plates. Macrophage differentiation was stimulated by adding phorbol 12-myristate 13-acetate (PMA; 100 ng/ml). After 48 h with PMA., >80% of the monocytes had transformed from cells in suspension (monocytes) to adherent cells (macrophages). At 48 hours the media and any non-adherent cells were removed and fresh RPMI media with 10% FBS (1 ml per well) was added. The cells were left for 24 hours in fresh media to become quiescent.
72 hours after PMA addition to U937 cells, lipopolysaccharide (LPS; 100 ng/ml; from E. coli, serotype 0111), interferonγ (IFNγ; 100 Units/ml), or a combination of LPS and IFNγ were added to the wells. Samples were collected before stimulator addition (72h), and at various times after addition as outlined in FIG. 108. To collect samples for analysis of cytokine secretion, the media from each well was transferred to clean microcentrifuge tubes and cleared of any debris by centrifugation at 13000×g for 3 mins. The media was stored at −20° C. in 200-250 μl aliquots prior to analysis. […]
The protein concentration in the cell lysates was determined by bicinchoninic acid assays (BCA) with bovine serum albumin used as the standard. […]

U937 cells = experiment: Induction of macrophage differentiation in U937 cells; type: cell-based, human; details: 100 ng/ml PMA, 48 h
Description: as §1

[2] = system: lamina cribrosa cell line #506; type: cell-based, human; details: confluent LC cells, 48 hours; 50 μM camptothecin, 10 ng/ml TNF-α; Hoescht staining
Description: FIG. 83 is a graph showing percent apoptosis of lamina cribrosa cell line #506 in response to treatment with camptothecin and TNF-α. Lamina cribrosa cell line #506 cells were seeded at 40,000 cells per well onto an 8-well culture slide. Three days later the confluent LC cells were treated with either 10 ng/ml TNF-α, 50 μM camptothecin, or 10 ng/ml TNF-α plus 50 μM camptothecin. An equivalent volume of DMSO, a vehicle control for camptothecin, was added to the untreated control cells. The cells were stained with Hoescht 33258 48 hours after treatment and viewed by fluorescence microscopy using a UV filter. Cells with brightly stained condensed or fragmented nuclei were counted as apoptotic.
Apoptosis was induced in lamina cribrosa cells using a combination of 50 μM camptothecin (Sigma) and 10 ng/ml TNF-α (Leinco Technologies).
Since TNF-α is believed to play an important role during the glaucomatous process, the susceptibility of LC cells to the cytotoxic effects of TNF-α was examined. Confluent LC cells were exposed to either camptothecin, TNF-α, or a combination of camptothecin and TNF-α for 48 hours (FIG. 83).

[3] = system: apoptosis-specific eIF-5A; experiment: Apoptosis-specific eIF-5A expression in LC cells during camptothecin or TNF-α plus camptothecin treatment; type: cell-based, human; details: LC cells #506; 50 μM camptothecin, 10 ng/ml TNF-α; 1, 4, 8, 24 hours
Description: Lamina cribrosa cell #506 cells were seeded at 40,000 cells per well onto a 24-well plate. Three days later the LC cells were treated with either 50 μM camptothecin or 10 ng/ml TNF-α plus 50 μM camptothecin and protein lysate was harvested 1, 4, 8, and 24 hours later. An equivalent volume of DMSO was added to control cells as a vehicle control and cell lysate was harvested 1 and 24 hours later. 5 μg of protein from each sample was separated by SDS-PAGE, transferred to a PVDF membrane, and Western blot with anti-apoptosis-specific eIF-5A antibody. The bound antibody was detected by chemiluminescence and exposed to x-ray film. The membrane was then stripped and re-blotted with anti-β-actin as an internal loading control.
Protein was isolated for Western blotting from lamina cribrosa cells growing on 24-well plates by washing the cells twice in PBS (8 g/L NaCl, 0.2 g/L KCl, 1.44 g/L Na2HPO4, and 0.24 g/L KH2PO4) and then adding 50 μl of lysis buffer [2% SDS, 50 mM Tris-HCl (pH 7.4)]. The cell lysate was collected in a microcentrifuge tube, boiled for 5 minutes and stored at −20° C. until ready for use. Protein concentrations were determined using the Bicinchoninic Acid Kit (BCA; Sigma). For Western blotting, 5 μg of total protein was separated on a 12 SDS-polyacrylamide gel. The separated proteins were transferred to a polyvinylidene difluoride membrane. […]

corpus luteum = experiment: DNA laddering in rat corpus luteum after PGF-2α; type: in vivo; details: superovulated rat corpus lutea; 0, 1, or 24 hours after injection
Description: The degree of apoptosis was determined by DNA laddering. Genomic DNA was isolated from dispersed corpus lineal cells or from excised corpus luteum tissue using the QIAamp DNA Blood Kit (Qiagen) according to the manufacturer's instructions. Corpus luteum tissue was excised before the induction of apoptosis by treatment with PGF-2α, 1 hour and 24 hours after induction of apoptosis. The isolated DNA was end-labeled by incubating 500 ng of DNA with 0.2 μCi [α-^32P]dCTP, 1 mM Tris, 0.5 mM EDTA, 3 units of Klenow enzyme, and […] each of dATP, dGTP, and dTTP at room temperature for 30 minutes. Unincorporated nucleotides were removed by passing the sample through a 1 ml Sepadex G-50 column according to Sambrook et al. The samples were then resolved by Tris-acetate-EDTA (1.8%) gel electrophoresis. The gel was dried for 30 minutes at room temperature under vacuum and exposed to x-ray film at −80° C. for 24 hours.
In one experiment, the degree of apoptosis in superovulated rat corpus lutea was examined either 0, 1, or 24 hours after injection with PGF-2α. In the 0 hour control, the ovaries were removed without PGF-2α injection. […] In this figure, the top panel is an autoradiograph of the Northern blot probed with the ^32P-dCTP-labeled 3′-untranslated region of rat corpus luteum apoptosis-specific DHS cDNA. The lower panel is the ethidium bromide stained gel of total RNA. […]

[4] = system: apoptosis-specific eIF-5A and DHS; experiment: Northern blot of rat corpus luteum RNA after PGF-2α; type: in vivo
From the text: […] of total RNA isolated from rat corpus luteum at various stages of apoptosis were separated on 1% denatured formaldehyde agarose gels and immobilized on nylon membranes. The full-length rat apoptosis-specific eIF-5A cDNA (SEQ ID NO:1) labeled with ^32P-dCTP using a random primer kit (Boehringer) was used to probe the membranes 7×10^7. Alternatively, full length rat DHS cDNA (SEQ ID NO:6) labeled with ^32P-dCTP using a random primer kit (Boehringer) was used to probe the membranes (7×10^7 cpm). The membranes were washed once with 1×SSC, 0.1% SDS at room temperature and three times with 0.2×SSC, 0.1% SDS at 65° C. The membranes were dried and exposed to X-ray film overnight at −70° C.

Structure (SMILES): CCCCCCCCCCCCCC(=O)O[C@@H]1[C@@H](C)[C@@]2(O)[C@@H](C=C(CO)C[C@]3(O)C(=O)C(C)=C[C@@H]23)[C@@H]2C(C)(C)[C@]12OC(C)=O [PMA, phorbol 12-myristate 13-acetate]
- apoptosis-specific eIF-5A expression [1]: upregulated
- monocytes transformed from cells in suspension to adherent cells (macrophages) (U937 cells): > 80%

Structure (SMILES): CC[C@@]1(O)C(=O)OCc2c1cc1n(c2=O)Cc2cc3ccccc3nc2-1 [camptothecin]
- cell death of LC cells [2]: approximately 30%
- expression of apoptosis-specific eIF-5A protein [3]: did not alter significantly

Structure (SMILES): CCCCC[C@H](O)/C=C/[C@@H]1[C@@H](C/C=C\CCCC(=O)O)[C@@H](O)C[C@H]1O [PGF-2α]
- laddering of low molecular weight DNA fragments (corpus luteum): discernible within 1 hour after induction of apoptosis and is pronounced by 24 hours
- expression of DHS [4]: increased substantially within 1 hour of treatment
- expression of apoptosis-specific eIF-5A [4]: significantly enhanced
